Species on record: Rattus norvegicus
Test: DrugMatrix - Regimen: Daily Repeat
Assay type: toxicity, organism-based, Sprague-Dawley
Design: regimen Daily Repeat, gender Male, age 6-8 weeks
Conditions: in vivo, po, route oral GAVAGE, vehicle .5 % CMC; for ABSOLUTE BASOPHIL / ABSOLUTE EOSINOPHIL / ABSOLUTE LYMPHOCYTE / ABSOLUTE MONOCYTE / ABSOLUTE SEGMENTED NEUTROPHIL / BASOPHIL / EOSINOPHIL / ERYTHROCYTE COUNT / HEMATOCRIT / HEMOGLOBIN / LEUKOCYTE COUNT / LYMPHOCYTE / MEAN CORPUSCULAR HEMOGLOBIN / MEAN CORPUSCULAR HEMOGLOBIN CONCENTRATION / MEAN CORPUSCULAR VOLUME / MONOCYTE / NEUTROPHIL / NUCLEATED RED BLOOD CELLS / PLATELET COUNT: tissue Blood; for ALANINE AMINOTRANSFERASE / ALBUMIN / ALKALINE PHOSPHATASE / ASPARTATE AMINOTRANSFERASE / BLOOD UREA NITROGEN / CARBON DIOXIDE / CHLORIDE / CHOLESTEROL / CREATINE PHOSPHOKINASE / CREATININE / GLUCOSE / LACTATE DEHYDROGENASE / LIPASE / PHOSPHORUS / POTASSIUM / SODIUM / TOTAL BILIRUBIN / TOTAL PROTEIN / URIC ACID: tissue Plasma
[1] = 580 mg/kg, 120 h, dose level High, time 5 day
[2] = […], 72 h, dose 2.4 mg/Kg, dose level Low, time 3 day
[3] = […], 120 h, dose 2.4 mg/Kg, dose level Low, time 5 day

CN1C(=O)COc2c(C(=O)NC3CN4CCC3CC4)cc(Cl)cc21 (centres undefined) [AZASETRON]
ABSOLUTE BASOPHIL [1]: 0 CELLS/uL
ABSOLUTE EOSINOPHIL [1]: 63.33 CELLS/uL
ABSOLUTE LYMPHOCYTE [1]: 14100 CELLS/uL
ABSOLUTE MONOCYTE [1]: 291 CELLS/uL
ABSOLUTE SEGMENTED NEUTROPHIL [1]: 979 CELLS/uL
BASOPHIL [1]: 0%
EOSINOPHIL [1]: 0.33%
ERYTHROCYTE COUNT [1]: 6.34 x10E6/uL
HEMATOCRIT [1]: 38%
HEMOGLOBIN [1]: 15.07 G/DL
LEUKOCYTE COUNT [1]: 15.43 x10E3/uL
LYMPHOCYTE [1]: 91.67%
MEAN CORPUSCULAR HEMOGLOBIN [1]: 23.8 pg
MEAN CORPUSCULAR HEMOGLOBIN CONCENTRATION [1]: 39.67 G/DL
MEAN CORPUSCULAR VOLUME [1]: 60 fL
MONOCYTE [1]: 2%
NEUTROPHIL [1]: 6%
NUCLEATED RED BLOOD CELLS [1]: 0 /100WBC
PLATELET COUNT [1]: 1316.67 x10E3/uL
ALANINE AMINOTRANSFERASE [1]: 58.33 u/L
ALBUMIN [1]: 4.3 G/DL
ALKALINE PHOSPHATASE [1]: 295 u/L
ASPARTATE AMINOTRANSFERASE [1]: 101.33 u/L
BLOOD UREA NITROGEN [1]: 21.67 mg/dL
CARBON DIOXIDE [1]: 24 mmol/L
CHLORIDE [1]: 100.67 MEQ/L
CHOLESTEROL [1]: 74.33 mg/dL
CREATINE PHOSPHOKINASE [1]: 955.33 u/L
CREATININE [1]: 0.23 mg/dL
GLUCOSE [1]: 160 mg/dL
LACTATE DEHYDROGENASE [1]: 604.33 u/L
LIPASE [1]: 10.33 u/L
PHOSPHORUS [1]: 12.33 mg/dL
POTASSIUM [1]: 6.37 MEQ/L
SODIUM [1]: 144.33 MEQ/L
TOTAL BILIRUBIN [1]: 0.2 mg/dL
TOTAL PROTEIN [1]: 6.2 G/DL
URIC ACID [1]: 2.43 mg/dL
ABSOLUTE BASOPHIL [2]: 0 CELLS/uL
ABSOLUTE EOSINOPHIL [2]: 0 CELLS/uL
ABSOLUTE LYMPHOCYTE [2]: 13884.67 CELLS/uL
ABSOLUTE MONOCYTE [2]: 148 CELLS/uL
ABSOLUTE SEGMENTED NEUTROPHIL [2]: 1867.33 CELLS/uL
BASOPHIL [2]: 0%
EOSINOPHIL [2]: 0%
ERYTHROCYTE COUNT [2]: 5.62 x10E6/uL
HEMATOCRIT [2]: 34.23%
HEMOGLOBIN [2]: 13.3 G/DL
LEUKOCYTE COUNT [2]: 15.9 x10E3/uL
LYMPHOCYTE [2]: 87.33%
MEAN CORPUSCULAR HEMOGLOBIN [2]: 23.7 pg
MEAN CORPUSCULAR HEMOGLOBIN CONCENTRATION [2]: 38.87 G/DL
MEAN CORPUSCULAR VOLUME [2]: 60.97 fL
MONOCYTE [2]: 1%
NEUTROPHIL [2]: 11.67%
NUCLEATED RED BLOOD CELLS [2]: 0 /100WBC
PLATELET COUNT [2]: 1219.67 x10E3/uL
ALANINE AMINOTRANSFERASE [2]: 63.67 u/L
ALBUMIN [2]: 4.13 G/DL
ALKALINE PHOSPHATASE [2]: 374.67 u/L
ASPARTATE AMINOTRANSFERASE [2]: 87.33 u/L
BLOOD UREA NITROGEN [2]: 18.33 mg/dL
CARBON DIOXIDE [2]: 30.67 mmol/L
CHLORIDE [2]: 98.33 MEQ/L
CHOLESTEROL [2]: 73 mg/dL
CREATINE PHOSPHOKINASE [2]: 308.67 u/L
CREATININE [2]: 0.17 mg/dL
GLUCOSE [2]: 148.33 mg/dL
LACTATE DEHYDROGENASE [2]: 222 u/L
LIPASE [2]: 10 u/L
PHOSPHORUS [2]: 11.57 mg/dL
POTASSIUM [2]: 6.45 MEQ/L
SODIUM [2]: 141.9 MEQ/L
TOTAL BILIRUBIN [2]: 0.17 mg/dL
TOTAL PROTEIN [2]: 5.83 G/DL
URIC ACID [2]: 1.37 mg/dL
ABSOLUTE BASOPHIL [3]: 0 CELLS/uL
ABSOLUTE EOSINOPHIL [3]: 0 CELLS/uL
ABSOLUTE LYMPHOCYTE [3]: 13149.67 CELLS/uL
ABSOLUTE MONOCYTE [3]: 243.33 CELLS/uL
ABSOLUTE SEGMENTED NEUTROPHIL [3]: 1007 CELLS/uL
BASOPHIL [3]: 0%
EOSINOPHIL [3]: 0%
ERYTHROCYTE COUNT [3]: 5.6 x10E6/uL
HEMATOCRIT [3]: 35%
HEMOGLOBIN [3]: 14 G/DL
LEUKOCYTE COUNT [3]: 14.4 x10E3/uL
LYMPHOCYTE [3]: 91.33%
MEAN CORPUSCULAR HEMOGLOBIN [3]: 25.1 pg
MEAN CORPUSCULAR HEMOGLOBIN CONCENTRATION [3]: 40 G/DL
MEAN CORPUSCULAR VOLUME [3]: 62.67 fL
MONOCYTE [3]: 1.67%
NEUTROPHIL [3]: 7%
NUCLEATED RED BLOOD CELLS [3]: 0 /100WBC
PLATELET COUNT [3]: 1192 x10E3/uL
ALANINE AMINOTRANSFERASE [3]: 54.33 u/L
ALBUMIN [3]: 4.1 G/DL
ALKALINE PHOSPHATASE [3]: 274.67 u/L
ASPARTATE AMINOTRANSFERASE [3]: 82 u/L
BLOOD UREA NITROGEN [3]: 18.67 mg/dL
CARBON DIOXIDE [3]: 28.67 mmol/L
CHLORIDE [3]: 99.67 MEQ/L
CHOLESTEROL [3]: 72 mg/dL
CREATINE PHOSPHOKINASE [3]: 240 u/L
CREATININE [3]: 0.19 mg/dL
GLUCOSE [3]: 154.67 mg/dL
LACTATE DEHYDROGENASE [3]: 169 u/L
LIPASE [3]: 10 u/L
PHOSPHORUS [3]: 10.83 mg/dL
POTASSIUM [3]: 6.08 MEQ/L
SODIUM [3]: 143.3 MEQ/L
TOTAL BILIRUBIN [3]: 0.27 mg/dL
TOTAL PROTEIN [3]: 6 G/DL
URIC ACID [3]: 1.3 mg/dL
